Data as given in patent publication US8394641B2, “Method of hydrolyzing an enzymatic substrate” (Advanced Liquid Logic Inc., priority 2009, dated 2013).

What was measured:
Type in all cases: biochemical
α-glucosidase = biological target: T1, α-glucosidase (Homo sapiens, UniProt P10253); assay: Pompe assay on bench, substrate hydrolysis with cyclodextrins, QC DBS extracts; conditions: data not shown
T1 construct: DBS extracts were prepared from quality control (QC) dried blood spot samples; tissue CDC, Atlanta Ga; host or cells: dried blood spot extracts (pooled cord blood / leukoreduced red cells plus serum)
Procedure: (§1) To evaluate the efficacy of cyclodextrins in enhancing the hydrolysis of enzymatic substrates (4-MU substrates) used in NBS assays, DBS extracts were prepared from quality control (QC) dried blood spot samples (i.e., base pool (BP), low (L), medium (M) and high (H) activity samples). The QC samples were obtained from CDC, Atlanta Ga. The base pool (BP) QC sample was prepared from a pool of leukoreduced human red blood cells that was adjusted with serum to a hematocrit of 50%. The High (H) activity QC sample was prepared from pooled cord blood that was adjusted with serum to a hematocrit of 50%. The medium (M) activity QC sample was prepared by using 50% base pool (BP) and 50% high (H) activity sample. The low (L) activity QC sample was prepared by using 95% base pool (BP) and 5% high (H) activity sample. The BP sample is used as a control for hydrolysis non-specific to white blood cell lysosomal enzymes. The DBS extracts were analyzed using on-bench assay protocols for Fabry, Gaucher, Krabbe, and Pompe diseases. For each assay, on-chip reagent formulations were scaled up to bench volumes. Hydroxypropyl-β-cyclodextrin or methyl-β-cyclodextrin reagent stocks (300 mM) were prepared in appropriate assay buffers. […] Fluorescence was read at 360/460 nm at a gain of 75. For each assay, QC samples (BP, L, M and H) were analyzed in duplicate. […]

Krabbe assay = biological target: T2, Krabbe assay (Homo sapiens, UniProt P54803); assay: Krabbe assay on bench, substrate hydrolysis with cyclodextrins, QC DBS extracts; conditions: data not shown
T2 construct: DBS extracts were prepared from quality control (QC) dried blood spot samples; tissue CDC, Atlanta Ga; host or cells: dried blood spot extracts (pooled cord blood / leukoreduced red cells plus serum)
T2 sequence (P54803 43-685): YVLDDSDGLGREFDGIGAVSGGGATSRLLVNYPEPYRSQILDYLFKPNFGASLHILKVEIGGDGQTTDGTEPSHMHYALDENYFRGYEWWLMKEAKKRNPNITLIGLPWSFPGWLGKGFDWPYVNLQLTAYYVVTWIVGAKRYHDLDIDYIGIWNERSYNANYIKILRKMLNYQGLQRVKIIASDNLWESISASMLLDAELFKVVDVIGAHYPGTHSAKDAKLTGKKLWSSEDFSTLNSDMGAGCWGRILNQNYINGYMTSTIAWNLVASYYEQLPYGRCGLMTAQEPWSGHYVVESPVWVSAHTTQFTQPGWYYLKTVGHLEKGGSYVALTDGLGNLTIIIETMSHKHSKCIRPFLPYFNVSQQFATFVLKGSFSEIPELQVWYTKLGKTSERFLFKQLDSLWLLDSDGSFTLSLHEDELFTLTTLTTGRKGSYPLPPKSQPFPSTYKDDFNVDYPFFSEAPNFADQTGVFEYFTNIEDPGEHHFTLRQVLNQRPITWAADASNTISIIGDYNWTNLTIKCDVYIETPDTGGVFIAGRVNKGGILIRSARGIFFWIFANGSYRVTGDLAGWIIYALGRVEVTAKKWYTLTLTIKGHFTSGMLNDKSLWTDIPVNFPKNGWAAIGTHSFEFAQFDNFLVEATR
Procedure: as §1

acid β-D-glucosidase = biological target: T3, acid β-D-glucosidase (Homo sapiens, UniProt P04062); assay: Gaucher assay on bench, substrate hydrolysis with cyclodextrins, QC DBS extracts; design: DBS extracts were prepared from quality control (QC) dried blood spot samples; tissue CDC, Atlanta Ga; host or cells: dried blood spot extracts (pooled cord blood / leukoreduced red cells plus serum); conditions: for effect on fluorescence signal in the Gaucher assay, lower concentrations: 1, 5, 10, 15, 20, 25 mM, one experiment; for effect on hydrolysis of the 4-MU substrate in the Gaucher assay: 10, 30, 100 mM tested, effect at 10 mM, 20 hrs at 37° C.
T3 sequence (P04062 40-536): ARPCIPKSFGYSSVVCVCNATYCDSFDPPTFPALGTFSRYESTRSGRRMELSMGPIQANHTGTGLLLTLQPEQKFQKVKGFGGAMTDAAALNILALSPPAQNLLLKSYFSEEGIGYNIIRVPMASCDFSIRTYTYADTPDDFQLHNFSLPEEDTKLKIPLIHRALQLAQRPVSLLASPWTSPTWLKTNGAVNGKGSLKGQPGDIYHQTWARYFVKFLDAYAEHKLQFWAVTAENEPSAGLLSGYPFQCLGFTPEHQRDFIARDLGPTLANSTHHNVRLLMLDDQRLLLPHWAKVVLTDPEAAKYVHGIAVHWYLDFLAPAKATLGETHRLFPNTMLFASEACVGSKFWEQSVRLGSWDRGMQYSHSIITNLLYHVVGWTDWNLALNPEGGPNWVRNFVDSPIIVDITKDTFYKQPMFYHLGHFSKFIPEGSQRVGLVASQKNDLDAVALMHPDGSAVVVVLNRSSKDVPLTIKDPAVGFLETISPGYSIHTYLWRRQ
Procedure: To evaluate the efficacy of cyclodextrins in enhancing the hydrolysis of enzymatic substrates (4-MU substrates) used in NBS assays, DBS extracts were prepared from quality control (QC) dried blood spot samples (i.e., base pool (BP), low (L), medium (M) and high (H) activity samples). The QC samples were obtained from CDC, Atlanta Ga. The base pool (BP) QC sample was prepared from a pool of leukoreduced human red blood cells that was adjusted with serum to a hematocrit of 50%. The High (H) activity QC sample was prepared from pooled cord blood that was adjusted with serum to a hematocrit of 50%. The medium (M) activity QC sample was prepared by using 50% base pool (BP) and 50% high (H) activity sample. The low (L) activity QC sample was prepared by using 95% base pool (BP) and 5% high (H) activity sample. The BP sample is used as a control for hydrolysis non-specific to white blood cell lysosomal enzymes. The DBS extracts were analyzed using on-bench assay protocols for Fabry, Gaucher, Krabbe, and Pompe diseases. For each assay, on-chip reagent formulations were scaled up to bench volumes. Hydroxypropyl-β-cyclodextrin or methyl-β-cyclodextrin reagent stocks (300 mM) were prepared in appropriate assay buffers. For each reaction, 10 μL of the appropriate substrate was mixed with 10 μL of DBS extract. After an incubation period (20 hrs at 37° C.), 50 μL of stop buffer (0.2 M NaCO3, pH 10.1) was added to the reaction. Fluorescence was read at 360/460 nm at a gain of 75. For each assay, QC samples (BP, L, M and H) were analyzed in duplicate.
FIGS. 21A and 21B show bar graphs 2100 and 2150 of the effect of hydroxypropyl-β-cyclodextrin and methyl-β-cyclodextrin, respectively, on substrate hydrolysis in a Gaucher assay. The 4-MU substrate in the Gaucher assay was β-D-glucopyranoside. The concentrations of β-cyclodextrins in the reaction mixture (substrate+DBS extract) were 10 mM, 30 mM, and 100 mM.
FIGS. 23A and 23B show bar graphs 2300 and 2350, respectively, of an experimental result of the effect of lower concentrations of hydroxypropyl-β-cyclodextrin and methyl-β-cyclodextrin, respectively, on substrate hydrolysis in a Gaucher assay. The 4-MU substrate in the Gaucher assay was β-D-glucopyranoside. The concentrations of β-cyclodextrins in the reaction mixture (substrate+DBS extract) were 1, 5, 10, 15, 20, and 25 mM. […] The β-cyclodextrin used may be hydroxypropyl-β-cyclodextrin at a concentration from about 5 mM to about 15 mM, or from about 7 mM to about 13 mM, or from about 9 mM to about 11 mM, or from about 9.5 mM to about 11.5 mM.

| Substance | effect on substrate hydrolysis in a Pompe assay (α-glucosidase) | effect on substrate hydrolysis in a Krabbe assay (Krabbe assay) | effect on fluorescence signal in the Gaucher assay, lower concentrations (acid β-D-glucosidase) | effect on hydrolysis of the 4-MU substrate in the Gaucher assay (acid β-D-glucosidase) |
| --- | --- | --- | --- | --- |
| hydroxypropyl-β-cyclodextrin | less effective | inhibitory | may affect the fluorescence signal | increase the hydrolysis |
| methyl-β-cyclodextrin | less effective | inhibitory | may affect the fluorescence signal | increase the hydrolysis |
